Assay results as given in paper PMC8006935, “Study of Combinatorial Drug Synergy of Novel Acridone Derivatives With Temozolomide Using in-silico and in-vitro Methods in the Treatment of Drug-Resistant Glioma” (Frontiers in Oncology, 2021).
Like-named read-outs stand apart in the source and are kept apart here.

Key:
[1] = design: method as in PMID 18971416; details: equation proposed by Levin-log permeability; cited from earlier work
[2] = tested on: Glioma; design: method as in PMID 19046047; details: administered along with surgery and radiotherapy; cited from earlier work
[3] = tested on: Drug resistant cancer cells (CR), T-98; experiment: Mathematical tumor growth model simulation and Bliss synergy, drug resistant cancer cells
[4] = Sulforhodamine B assay, Vero control cells; format: cell-based; details: African green monkey, Vero cells (normal kidney epithelial cells), SRB, read-out: Vero cell Line CC50
Procedure: (§1) In order to test the growth inhibition potential of the TMZ and Acridone derivatives on Glioma, the U-87 (Uppsala 87) Glioma cell lines and T-98 (Temozolomide resistant) Glioma cell lines were treated with Temozolomide (TMZ) and Acridone derivatives AC2, AC7, and AC26. The African Green Monkey Kidney Vero cell lines were used as control for the study. The Vero cell lines were obtained from the National Center for Cell Sciences (NCCS), Pune, while the U-87 and T-98 cell lines were carried in the lab of Dr. GJ Peters, Cancer Center Amsterdam (CCA), VU University Medical Center, Amsterdam, Netherlands. The Mycoplasma testing was done by using the Universal Mycoplasma Detection Kit (ATCC® 30-1012K™) every 6 months. The Vero cell lines have been used as control as they are normal kidney epithelial cells and are non-cancerous in nature. The Vero cell lines have been routinely used for testing cytotoxicity of small molecules by various researchers ([22], [23]). Also, in our previous study, Vero cell lines have been used for testing safety and efficacy of Acridone derivatives for Lung, Cervical, and Breast Cancer studies ([13]).
(§2) Cell viability was found using the Sulforhodamine B (SRB) assay to measure the cellular protein content which provides better sensitivity in comparison to MTT assay ([24]). Moreover, as this method is dependent on the property of the SRB dye, it acts by binding to proteins under slightly acidic conditions and can be exposed to basic conditions for its extraction. The resulting amount of bound dye is then utilized as a proxy for cell mass ([25]). This cell mass can then be extrapolated to measure cell growth.
Glioma cells were cultured in Gibco (RPMI 1640) complemented with 10% fetal calf serum (Gibco). The cultures were then treated with trypsin-EDTA in order to detach/separate the cells from their culture flasks. The quickly proliferating cells were harvested, counted and plated at suitable concentrations in 96-well microplates. These microplates were subsequently incubated for 24 h. After incubation, drug compounds were dissolved in the culture media and placed in 96 well plates in triplicates, which were again incubated at 37°C under 5% CO2 for 72 h. 72 h later, the plates were removed and the cells were treated with cold Trichloroacetic acid (TCA) to fix the cultures and. […] Thereafter, absorbance of the solution was measured at 540 nm utilizing a microplate reader. Absorbance readings (triplicate values) recorded were used to calculate percentage growth inhibition due to the effect of drugs using the following equations.
% Cell growth = Absorbance sample/Absorbance of control or untreated × 100 […]
The IC50 was calculated based on the log graph sheet which was developed in-house at the CCA, VU University Medical Center. […]

[5] = tested on: T-98 (Temozolomide resistant) Glioma cell lines; experiment: Sulforhodamine B assay, T-98 TMZ resistant Glioma cells; format: cell-based; details: for IC50: Glioma cell
Procedure: as §1, §2
(§3) Glioma cells were cultured in Gibco (RPMI 1640) complemented with 10% fetal calf serum (Gibco). The cultures were then treated with trypsin-EDTA in order to detach/separate the cells from their culture flasks. The quickly proliferating cells were harvested, counted and plated at suitable concentrations in 96-well microplates. These microplates were subsequently incubated for 24 h. After incubation, drug compounds were dissolved in the culture media and placed in 96 well plates in triplicates, which were again incubated at 37°C under 5% CO2 for 72 h. 72 h later, the plates were removed and the cells were treated with cold Trichloroacetic acid (TCA) to fix the cultures and. 0.4% of SRB dissolved in 1% acetic acid was then added to the culture in order to stain the cells. Next, the bound stain was dissolved in 150 μl of 10 mM unbuffered Tris base left on a gyrator shaker. Thereafter, absorbance of the solution was measured at 540 nm utilizing a microplate reader. Absorbance readings (triplicate values) recorded were used to calculate percentage growth inhibition due to the effect of drugs using the following equations.
(§4) % Cell growth = Absorbance sample/Absorbance of control or untreated × 100
(§5) % Growth inhibition = 100 - % cell growth
(§6) The IC50 was calculated based on the log graph sheet which was developed in-house at the CCA, VU University Medical Center.
(§7) Selectivity Index (SI) is a ratio that measures the window between cytotoxicity and anticancer activity of the drugs ([26]). […] Here, IC50 is the inhibition concentration for inhibiting 50% of cancer cells and CC50 is cytotoxic concentration causing death of 50% viable cells in the host.

[6] = tested on: U-87 (Uppsala 87) Glioma cell lines; experiment: Sulforhodamine B assay, U-87 drug sensitive Glioma cells; format: cell-based
Procedure: as §1, §2, §3, §4, §5, §6, §7

[7] = design: method as in PMID 20925470; details: high doses; cited from earlier work
[8] = SI = CC50 of Vero cell line /IC50 of Cancer cell line after 72 h

Cn1nnc2c(C(N)=O)ncn2c1=O [TMZ, 3-Methyl-4-oxo-3,4-dihydroimidazo[5,1-d][1,2,3,5]tetrazine-8-carboxamide]
brain capillary permeability [1]: ~2.7 ×10⁻⁶ cm/s | increase of survival advantage [2]: 2.5 times | % fold change [(final-initial)/initial]*100 ([3]; combination TMZ + AC2): 80.8% | Fold change = final IC50/initial IC50 ([3]; combination TMZ + AC2): 0.19 | % fold change [(final-initial)/initial]*100 ([3]; combination TMZ + AC7): 75.68% | Fold change = final IC50/initial IC50 ([3]; combination TMZ + AC7): 0.24 | Fold change = final IC50/initial IC50 ([3]; combination TMZ + AC26): 0.54 | CC50 at 72 h [4]: 482 µM | IC50 ([5]; 72 h, SRB, Mean ± Standard Deviations in Table 4, read-out: T-98/TMZRES IC50): > 100 µM | IC50 ([5]; drug administered individually, drug resistant cells, read-out: Initial IC50): 190 µM | T-98/TMZRES SI [5, 8]: 2.53 | Relative growth, experimental data for T-98 cell line ([5]; TMZ dose 0.5): 98.26% | Relative growth, experimental data for T-98 cell line ([5]; TMZ dose 1): 97.74% | Relative growth, experimental data for T-98 cell line ([5]; TMZ dose 2.5): 96.65% | Relative growth, experimental data for T-98 cell line ([5]; TMZ dose 5): 95% | Relative growth, experimental data for T-98 cell line ([5]; TMZ dose 10): 87.43% | Relative growth, experimental data for T-98 cell line ([5]; TMZ dose 25): 61.98% | Relative growth, experimental data for T-98 cell line ([5]; TMZ dose 50): 52.77% | Relative growth, experimental data for T-98 cell line ([5]; TMZ dose 100): 50.87% | U-87/WT SI [6, 8]: 20.66 | Relative growth, experimental data for U-87 cell line ([6]; TMZ dose 0.5): 98.47% | Relative growth, experimental data for U-87 cell line ([6]; TMZ dose 1): 97.76% | Relative growth, experimental data for U-87 cell line ([6]; TMZ dose 2.5): 97% | Relative growth, experimental data for U-87 cell line ([6]; TMZ dose 5): 94.93% | Relative growth, experimental data for U-87 cell line ([6]; TMZ dose 10): 87.32% | Relative growth, experimental data for U-87 cell line ([6]; TMZ dose 25): 50.41% | Relative growth, experimental data for U-87 cell line ([6]; TMZ dose 50): 47.71% | Relative growth, experimental data for U-87 cell line ([6]; TMZ dose 100): 40.87% | IC50 ([6]; U87WT, 72 h, SRB, Mean ± Standard Deviations in Table 4, read-out: U-87/WT IC50): 23.3 ± 7.57 µM | dose leading to severe toxicity [7]: more than 250 μM
